Where “and” joins values, the source holds several entries; their conditions need not be identical. Equal entries are not always repeated.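 Exposure lasted 48 hours, with cells grown in 96-well plates and compounds tested at five concentrations. GI50 is the concentration that inhibits growth by half. TGI marks complete inhibition of growth.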
How the values were obtained:
Test in all cases: NCI-60 cell line screen, 48 h
[1] = test system: UACC-62 melanoma
[2] = test system: SF-295 CNS
[3] = test system: UO-31 renal
[4] = test system: DU-145 prostate
[5] = test system: NCI-H460 lung
[6] = test system: PC-3 prostate
[7] = test system: IGROV1 ovarian
[8] = test system: SW-620 colon
[9] = test system: SK-MEL-28 melanoma
[10] = test system: UACC-257 melanoma

Row | SMILES | TGI [1] | TGI [2] | TGI [3] | TGI [4] | TGI [5] | TGI [6] | TGI [7] | TGI [8] | TGI [9] | TGI [10] | GI50 [1] | GI50 [2] | GI50 [3] | GI50 [4] | GI50 [5] | GI50 [7] | GI50 [9] | GI50 [10] | GI50 [6] | GI50 [8]
1 | O=C1C=CC(=O)c2c1cc1ccccc1c2O | 20 µM | 31.6 µM | 9.11 µM | 28.3 µM | 41.3 µM | 19.1 µM | 15.6 µM | 3.59 µM | 20 µM | 7.91 µM | – | – | – | – | – | – | – | – | – | –
2 | CC[C@@]1(O)C(=O)OCc2c1cc1n(c2=O)Cc2cc3c(Cl)c4c(cc3nc2-1)OCO4 | 0.337 µM and 0.544 µM | – | – | > 100 µM | 0.279 µM and 0.382 µM | > 100 µM | > 100 µM | > 100 µM | > 100 µM | 3.64 µM and 1.92 µM | < 0.001 µM | < 0.001 µM | < 0.001 µM | < 0.001 µM | < 0.001 µM | 0.121 µM and 0.285 µM | 0.442 µM and 1.18 µM | 0.156 µM and 0.312 µM | – | –
3 | Cc1ccc2c(n1)C(=O)C(Cl)=C(Nc1ccc(N3CCN(C)CC3)cc1)C2=O | 3.12 µM | 32.3 µM | 2.98 µM | 3.25 µM | 15.7 µM | 3.16 µM | 3.6 µM | 4.52 µM | 3.31 µM | 3.11 µM | 1.71 µM | 18 µM | 1.63 µM | 1.76 µM | 3.74 µM | 1.87 µM | 1.88 µM | 1.7 µM | 1.57 µM | 2.01 µM
4 | CC(=O)Nc1cc(C(c2ccccc2)c2ccccc2)cc(C(c2ccccc2)c2ccccc2)c1C | > 100 µM | 7.49 µM | > 100 µM | > 100 µM | > 100 µM | > 100 µM | > 100 µM | > 100 µM | > 100 µM | > 100 µM | 5.86 µM | 2.64 µM | 3.54 µM | > 100 µM | 7.49 µM | 32.5 µM | > 100 µM | 8.72 µM | 4.13 µM | 7.25 µM
5 | O=S1CCN(Cc2ccc(-c3ccc4ncnc(Nc5ccc(OCc6ccccc6)c(F)c5)c4c3)o2)CC1 | 16 µM | > 22.1 µM | > 25 µM | > 25 µM | > 25 µM | > 25 µM | > 25 µM | > 25 µM | > 20.5 µM | > 25 µM | 5.1 µM | 7.63 µM | 4.85 µM | 4.56 µM | 7.91 µM | 1.29 µM | 6.8 µM | 6.66 µM | 9.98 µM | 10.8 µM
6 | [CH3][Sn]([CH3])([CH3])[O]C(=O)C(O)c1ccccc1 (stereo unspecified) | 4.49 µM | 16.9 µM | 31.5 µM | > 100 µM | > 69.8 µM | > 100 µM | > 87.3 µM | > 100 µM | > 100 µM | > 41.7 µM | 2.11 µM | 3.67 µM | 4.16 µM | 6.18 µM | 3.9 µM | 8.47 µM | 8.55 µM | 4.25 µM | 2.4 µM | 5.13 µM
7 | CCOC(=O)c1c(C(F)(F)F)n([O-])c2ccc(Cl)cc2[n+]1=O | 3.71 µM | 2.83 µM | 2.93 µM | 3.5 µM | 3.99 µM | 3.02 µM | 3.77 µM | 3.74 µM | 3.58 µM | 4.7 µM | 1.72 µM | 1.24 µM | 1.48 µM | 1.93 µM | 2.05 µM | 1.85 µM | 1.89 µM | 2.19 µM | 1.45 µM | 1.87 µM
8 | O=C(NC1CCNCC1)c1[nH]ncc1NC(=O)c1c(Cl)cccc1Cl | 3.18 µM and 1.89 µM | > 51.8 µM | > 76.6 µM | > 23.6 µM | > 45.6 µM | 5.01 µM and > 10 µM | > 55.2 µM | > 10 µM | 2.32 µM and 3.96 µM | 4.56 µM and > 7.47 µM | 1.33 µM and 0.479 µM | 1.13 µM and 1.01 µM | 16.7 µM and > 7.2 µM | 0.417 µM and 0.472 µM | 0.338 µM and 0.381 µM | 0.681 µM and 0.362 µM | 0.43 µM and 0.568 µM | 1.42 µM and 1.92 µM | 0.332 µM and 0.323 µM | 0.365 µM and 0.425 µM
9 | Nc1cccc2c1CN(C1CCC(=O)NC1=O)C2=O (stereo unspecified) | > 100 µM | > 100 µM | > 100 µM | > 100 µM | > 100 µM | > 100 µM | > 100 µM | > 100 µM | > 100 µM | > 100 µM | > 100 µM | > 100 µM | > 100 µM | > 100 µM | > 100 µM | > 100 µM | > 100 µM | > 100 µM | > 100 µM | > 100 µM
10 | CS(=O)/C(C#N)=C\C=C\c1cccc(Cl)c1 (stereo unspecified) | 3.54 µM | 10.7 µM | 6.56 µM | 3.32 µM | 11.2 µM | 12.8 µM | 10.3 µM | 11.6 µM | 9.78 µM | 12.2 µM | 1.18 µM | 3.05 µM | 1.97 µM | 1.45 µM | 2.41 µM | 2.08 µM | 2.68 µM | 2.41 µM | 2.68 µM | 2.71 µM
11 | O=C1c2ccccc2C(=O)c2c(NCCNCCO)ccc(NCCNCCO)c21 | 4.25 µM and 4.33 µM and 2.97 µM | 4.47 µM and 9.66 µM and 9.97 µM | 38.1 µM and 27.7 µM and 36.9 µM | 4.89 µM and 8.28 µM and 8.69 µM | 1.91 µM and 3.38 µM and 2.16 µM | 17.8 µM and 13.4 µM and 7.54 µM | 10.3 µM and 9.84 µM | 11.8 µM and 13.5 µM and 11.3 µM | 3.14 µM and 3.87 µM and 5.01 µM | 14.2 µM and 27.9 µM and 24.7 µM | 1.03 µM and 1.2 µM and 1.06 µM | 0.416 µM and 0.655 µM and 0.89 µM | 5.36 µM and 1.58 µM and 2.79 µM | 0.718 µM and 1.41 µM and 1.29 µM | 0.127 µM and 0.158 µM and 0.189 µM | 1.14 µM and 0.55 µM and 0.811 µM | 1.46 µM and 1.61 µM and 1.7 µM | 4.72 µM and 6.86 µM and 6.63 µM | 2.27 µM and 2.34 µM and 1.67 µM | 1.15 µM and 1.08 µM and 0.838 µM
12 | NS(=O)(=O)c1cccc(-c2cc3ccncc3cc2OCc2ccccc2)c1 | > 25 µM | > 17.7 µM | > 21.4 µM | > 25 µM | > 25 µM | > 25 µM | > 25 µM | > 25 µM | > 25 µM | > 25 µM | 9.76 µM | 6.55 µM | 5.76 µM | 17.1 µM | 11.7 µM | > 20.7 µM | 5.85 µM | 7.76 µM | 10.8 µM | 9.92 µM
13 | Cc1ccc(C2NC(=S)N3C(c4ccc(C)cc4)NC(=S)N23)cc1 (stereo unspecified) | 11.7 µM | 11.8 µM | 28.2 µM | 13.6 µM | 13.1 µM | 16.9 µM | 22 µM | 17.9 µM | 24.2 µM | 22.6 µM | 1.88 µM | 2.92 µM | 12 µM | 3.62 µM | 3.82 µM | 8.5 µM | 11.5 µM | 10.3 µM | 3.81 µM | 3.78 µM

From PubChem BioAssay (NCI)
